Assay results taken from US7220744B2, “Monocyclic substituted phenyl methanones” (Hoffman-La Roche Inc., priority 2005, dated 2007).

Target: T1, mGlyT-1b (Mus musculus, UniProt P28571)
T1 construct: host or cells: Flp-in-CHO cells (vendor and catalogue number are those of the host cell line)
T1 sequence (P28571 1-651 isoform P28571-2): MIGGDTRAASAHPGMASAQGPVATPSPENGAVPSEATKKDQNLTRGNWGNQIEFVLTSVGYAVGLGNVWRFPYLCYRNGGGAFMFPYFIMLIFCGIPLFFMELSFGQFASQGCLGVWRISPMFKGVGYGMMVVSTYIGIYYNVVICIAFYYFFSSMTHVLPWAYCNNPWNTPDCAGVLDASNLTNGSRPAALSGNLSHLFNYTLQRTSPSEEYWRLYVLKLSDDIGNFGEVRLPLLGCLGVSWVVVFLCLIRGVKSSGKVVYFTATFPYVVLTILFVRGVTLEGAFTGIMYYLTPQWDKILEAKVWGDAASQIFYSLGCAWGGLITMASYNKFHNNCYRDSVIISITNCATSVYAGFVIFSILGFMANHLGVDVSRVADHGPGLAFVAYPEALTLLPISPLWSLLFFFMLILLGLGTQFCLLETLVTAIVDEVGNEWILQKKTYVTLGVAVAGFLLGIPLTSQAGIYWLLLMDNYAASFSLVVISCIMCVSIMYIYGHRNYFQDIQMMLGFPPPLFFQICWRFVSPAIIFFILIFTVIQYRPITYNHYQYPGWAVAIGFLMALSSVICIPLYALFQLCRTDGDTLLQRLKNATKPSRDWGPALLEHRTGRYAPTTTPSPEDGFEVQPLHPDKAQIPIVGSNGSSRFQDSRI
Experiment: Glycine Uptake Inhibition Assay (mGlyT-1b)
Type: cell-based
Conditions: inhibition of [3H]-glycine uptake in Flp-in-CHO cells transfected with mGlyT-1b cDNA; 20 min preincubation at 22° C.; read-out: IC50 (μM) at GlyT-1
Procedure: DMEM complete medium: Nutrient mixture F-12 (Gibco Life-technologies), fetal bovine serum (FBS) 5%, (Gibco life technologies), Penicillin/Streptomycin 1% (Gibco life technologies), Hygromycin 0.6 mg/ml (Gibco life technologies), Glutamine 1 mM Gibco life technologies)
Uptake buffer (UB): 150 mM NaCl, 10 mM Hepes-Tris, pH 7.4, 1 mM CaCl2, 2.5 mM KCl, 2.5 mM MgSO4, 10 mM (+) D-glucose.
Flp-in™-CHO (Invitrogen Cat n° R758-07) cells stably transfected with mGlyT1b cDNA.
Glycine Uptake Inhibition Assay (mGlyT-1b)
On day 1 mammalian cells, (Flp-in™-CHO), transfected with mGlyT-1b cDNA, were plated at the density of 40,000 cells/well in complete F-12 medium, without hygromycin in 96-well culture plates. On day 2, the medium was aspirated and the cells were washed twice with uptake buffer (UB). The cells were then incubated for 20 min at 22° C. with either (i) no potential competitor, (ii) 10 mM non-radioactive glycine, (iii) a concentration of a potential inhibitor. A range of concentrations of the potential inhibitor was used to generate data for calculating the concentration of inhibitor resulting in 50% of the effect (e.g. IC50, the concentration of the competitor inhibiting glycine uptake of 50%). A solution was then immediately added containing [^3H]-glycine 60 nM (11–16 Ci/mmol) and 25 μM non-radioactive glycine. The plates were incubated with gentle shaking and the reaction was stopped by aspiration of the mixture and washing (three times) with ice-cold UB. The cells were lysed with scintillation liquid, shaken 3 hours and the radioactivity in the cells was counted using a scintillation counter.

Compound	IC50 [µM]
Cc1nc(N2CCN(C(=O)c3cc(S(C)(=O)=O)ccc3O[C@H](C)C(F)(F)F)CC2)sc1C(F)(F)F [Example 81, [5-Methanesulfonyl-2-((R)-2,2,2-trifluoro-1-methyl-ethoxy)-phenyl]-[4-(4-methyl-5-trifluoromethyl-thiazol-2-yl)-piperazin-1-yl]-methanone]	0.044
CC(C)Sc1ccc(S(C)(=O)=O)cc1C(=O)N1CCN(c2ncc(C(F)(F)F)s2)CC1 [Example 84, (2-Isopropylsulfanyl-5-methanesulfonyl-phenyl)-[4-(5-trifluoromethyl-thiazol-2-yl)-piperazin-1-yl]-methanone]	0.076
C[C@H](Oc1ccc(S(C)(=O)=O)cc1C(=O)N1CCN(c2nnc(C(F)(F)F)s2)CC1)C(F)(F)F [Example 93, [5-Methanesulfonyl-2-((S)-2,2,2-trifluoro-1-methyl-ethoxy)-phenyl]-[4-(5-trifluoromethyl-[1,3,4]thiadiazol-2-yl)-piperazin-1-yl]-methanone]	0.075
CNS(=O)(=O)c1ccc(OC2CCCC2)c(C(=O)N2CCN(c3ncc(C#N)s3)CC2)c1 [Example 99, 3-[4-(5-Cyano-thiazol-2-yl)-piperazine-1-carbonyl]-4-cyclopentyloxy-N-methyl-benzenesulfonamide]	0.021
CNS(=O)(=O)c1ccc(OC2CCCC2)c(C(=O)N2CCN(c3nc(-c4ccccc4)ns3)CC2)c1 [Example 100, 4-Cyclopentyloxy-N-methyl-3-[4-(3-phenyl-[1,2,4]thiadiazol-5-yl)-piperazine-1-carbonyl]-benzenesulfonamide]	0.055
CNS(=O)(=O)c1ccc(OC2CCCC2)c(C(=O)N2CCN(c3nnc(C(F)(F)F)s3)CC2)c1 [Example 101, 4-Cyclopentyloxy-N-methyl-3-[4-(5-trifluoromethyl-[1,3,4]thiadiazol-2-yl)-piperazine-1-carbonyl]-benzenesulfonamide]	0.026
CS(=O)(=O)c1ccc(OCC(F)(F)C(F)(F)F)c(C(=O)N2CCN(c3ncc(C(F)(F)F)s3)CC2)c1 [Example 103, [5-Methanesulfonyl-2-(2,2,3,3,3-pentafluoro-propoxy)-phenyl]-[4-(5-trifluoromethyl-thiazol-2-yl)-piperazin-1-yl]-methanone]	0.006
